Measurements: patent US20030125234A1, “Alteration of protein stability” (priority 2001, published 2003)
“Also recorded” adds a separate entry of the source. Residues, ends and D or L forms follow the SMILES beside them.

Assays:
Format in all cases: biochemical
[1] = target: T1, Bovine insulin (Bos taurus, UniProt P01317); test: Insulin aggregation (turbidity at 360 nm) induced by DTT; conditions: for inhibition index: Insulin 0.25 mg/mL, 25° C., DTT, compound 100×, standard deviation in parenthesis
T1 construct: purchased Sigma, St. Louis, Mo., USA
Procedure: (§1) Bovine insulin [Sigma, St. Louis, Mo., USA] was dissolved in phosphate saline (PBS) (50 mM sodium biphosphate, 100 mM sodium chloride), pH 7.0, bovine alpha-lactalbumin [Sigma] in 50 mM sodium phosphate, 100 mM sodium chloride and 2 mM EDTA, pH 6.2, chicken egg white lysozyme [Sigma] in 100 mM Tris, 1 mM EDTA, pH 8.2, human acidic fibroblast growth factor (FGF-1) in 6.2 mM sodium biphosphate, 120 mM sodium chloride, pH 7.2, porcine somatotropin (pST) [provided by Pfizer, Inc., Groton, Conn., USA] in 10 mM phosphate, pH 6. 1, human apolactoferrin (HLF) [Sigma] in 20 mM HEPES, 154 mM NaCl, pH 7.4, porcine heart citrate synthase (CS) in 40 mM HEPES, 50 mM KCl, 10 mM (NH4)2SO4 mM potassium acetate, pH 7.8, and yeast alcohol dehydrogenase (ADH) [Sigma] in pH 7.0 PBS. Selection of buffer solutions was based on an extensive series of preliminary studies to obtain appropriate insolubilization kinetics as described below.
(§2) Copper O-phenanthroline (1,10-phenanthroline) was prepared by mixing copper sulfate hexahydrate [Fisher] and o-phenanthroline [Sigma] in a 1:2 ratio. 1 M Dithiothreitol (DTT) was prepared at pH 7.0 PBS. Polyethylene glycol (M.W. 8000, Union Carbide, Danbury, Conn., USA) (PEG) was prepared at 20 mg/mL in 10 mM phosphate, pH 6.1.
(§3) The following compounds were obtained from Sigma and used without further purification: oxalic acid, sodium malonate, succinic acid, glutaric acid, adipic acid, pimelic acid, suberic acid, azelaic acid, guanidine hydrochloride, ammonium formate, beta-alanine, 4-aminobutyric acid, 5-aminovaleric acid, 6-aminocaproic acid, 7-aminoheptanoic acid, hydrazine, ethylenediamine, 1,3-diaminopropane, 1,4-diaminobutane, 1,5-diaminopentane, 1,6-diaminohexane, 1,7-diaminoheptane, Glu-Glu, Glu-Lys, Lys-Lys, diglycine, triglycine, tetraglycine, pentaglycine, and hexaglycine. […] Triglycine and tetraglycine were dissolved in pH 8.6 PBS, while pentaglycine and hexaglycine were dissolved in pH 10.6 PBS.
(§4) Each was either dissolved in pH 7.0 PBS, or pH 6.1 10 mM phosphate, and adjusted to the same pH.
(§5) Protein aggregation was monitored for 1 hour at 360 nm using an HP8453 UV-visible spectrophotometer system [Hewlett Packard, Germany]. […] Insulin (0.25 mg/mL (4.39E-5 M)) aggregation was monitored at 25° C. after addition of potential inhibitors and 20 μL of 1 M DTT (1.27E-4 M). Alpha-lactabumin (0.4 mg/mL (2.82E-5 M)) aggregation was monitored at 37° C. in the presence of 20 μL of 1 M DTT (1.27E-4 M). Lysozyme (0.4 mg/mL (2.86E-5 M)) aggregation was monitored at 25° C. in the presence of 20 μL of 1 M DTT (1.27E-4 M). FGF-1 (50 μg/mL (3.12E-6 M)) aggregation was monitored at 50° C. Porcine somatotropin (1.27 mg/mL (5.76E-5 M)) aggregation was monitored at 60° C. in the presence of PEG 8000 (20 mg/mL) which was included to enhance the protein association process through a simple exclusion volume effect. HLF (0.4 mg/mL (5.23E-6 M)) aggregation was monitored at 43° C. in the presence of 1.27E-4 M DTT. Citrate synthase (96 μg/mL (9.80E-7 M)) aggregation was monitored at45° C. ADH (1 mg/mL (7.14E-6 M)) was monitored at 37° C. following the addition of 7.76E-5 M Cu(OP)2. Aggregation was compared to protein in the absence of the particular dipolar compound. After stirring, experiments were initiated by the addition of proteins followed by stressing reagents to 1 cm pathlength cuvettes employing a seven-position thermostatted sample holder that was cycled at 30-second intervals. Alternatively, a microtiter plate reader was employed under the same conditions in a 96 well format.
(§6) All optical density (OD)360nm versus time results were exported into Excel [Microsoft] for data analysis.

[2] = target: T2, bovine alpha-lactalbumin (Bos taurus, UniProt P00711); test: Alpha-lactalbumin aggregation (turbidity at 360 nm) induced by DTT; conditions: for inhibition index: α Lactalbumin 0.4 mg/mL, 37° C., DTT, compound 1,000×, standard deviation in parenthesis
T2 construct: purchased Sigma
T2 sequence (P00711 20-142): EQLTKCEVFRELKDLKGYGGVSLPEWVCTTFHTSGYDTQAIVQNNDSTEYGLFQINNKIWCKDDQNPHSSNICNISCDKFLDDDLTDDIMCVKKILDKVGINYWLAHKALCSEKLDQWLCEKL
Procedure: as §1, §2, §3, §4, §5, §6

[3] = target: T3, human apolactoferrin (HLF) (Homo sapiens, UniProt P02788); test: HLF aggregation (turbidity at 360 nm) induced by DTT; conditions: for inhibition index: HLF 0.4 mg/mL, 43° C., DTT, head 10,000×, standard deviation in parenthesis
T3 construct: purchased Sigma
Procedure: as §1, §2, §3, §4, §5, §6

[4] = target: T4, yeast alcohol dehydrogenase (ADH) (Saccharomyces cerevisiae, UniProt P00330); test: ADH oxidation-induced aggregation (turbidity at 360 nm), Cu(OP)2; conditions: for inhibition of ADH aggregation, in words: FIG. 1; for inhibition index: ADH 1 mg/mL, 37° C., Cu(OP)2
T4 construct: purchased Sigma
T4 sequence (P00330 2-348 limits assumed): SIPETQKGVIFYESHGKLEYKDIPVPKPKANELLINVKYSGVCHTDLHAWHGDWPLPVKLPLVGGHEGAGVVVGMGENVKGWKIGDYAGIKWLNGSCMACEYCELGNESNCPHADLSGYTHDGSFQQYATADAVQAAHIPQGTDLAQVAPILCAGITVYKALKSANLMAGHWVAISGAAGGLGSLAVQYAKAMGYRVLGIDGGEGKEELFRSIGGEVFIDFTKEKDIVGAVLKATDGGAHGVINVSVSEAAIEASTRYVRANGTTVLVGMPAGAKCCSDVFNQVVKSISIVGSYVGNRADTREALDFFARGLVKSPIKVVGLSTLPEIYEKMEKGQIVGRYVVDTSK
Procedure: as §1, §2, §3, §4, §5, §6

[5] = compound 1,000X, standard deviation in parenthesis
[6] = compound 10,000X molar excess, Infinite = complete inhibition of aggregation over one hour

T3 sequence (P02788 20-710): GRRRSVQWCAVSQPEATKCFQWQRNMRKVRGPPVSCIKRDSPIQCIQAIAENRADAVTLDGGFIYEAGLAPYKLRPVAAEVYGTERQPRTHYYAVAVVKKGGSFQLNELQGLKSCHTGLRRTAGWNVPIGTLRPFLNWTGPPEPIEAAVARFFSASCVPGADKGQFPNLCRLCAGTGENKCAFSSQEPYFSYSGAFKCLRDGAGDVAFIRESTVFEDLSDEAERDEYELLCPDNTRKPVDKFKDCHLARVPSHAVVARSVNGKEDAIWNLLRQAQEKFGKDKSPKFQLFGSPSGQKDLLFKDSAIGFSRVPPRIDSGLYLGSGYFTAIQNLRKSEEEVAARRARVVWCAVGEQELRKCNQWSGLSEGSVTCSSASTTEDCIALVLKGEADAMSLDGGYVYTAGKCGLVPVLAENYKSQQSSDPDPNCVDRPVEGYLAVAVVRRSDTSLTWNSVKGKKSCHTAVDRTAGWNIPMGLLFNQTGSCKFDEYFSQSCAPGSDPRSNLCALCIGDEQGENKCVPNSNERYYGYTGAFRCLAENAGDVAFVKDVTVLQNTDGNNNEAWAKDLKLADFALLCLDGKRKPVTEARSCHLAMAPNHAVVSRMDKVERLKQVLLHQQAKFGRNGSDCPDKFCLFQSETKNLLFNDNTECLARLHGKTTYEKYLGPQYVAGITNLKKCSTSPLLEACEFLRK
T1 sequence (P01317 25-54 limits assumed): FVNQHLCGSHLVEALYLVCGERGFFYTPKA
T1 sequence (P01317 85-105 limits assumed): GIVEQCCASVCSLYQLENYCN

Row | Compound | inhibition index [1] | inhibition index [2] | inhibition index ([3]; second HLF column) | inhibition of ADH aggregation, in words [4] | inhibition index ([3]; first HLF column) | inhibition index [4, 5] | inhibition index [4, 6] | inhibition of insulin aggregation, in words [1] | inhibition of α-lactalbumin aggregation, in words [2] | inhibition of lactoferrin (HLF) aggregation, in words [3]
1 | O=C(O)C(=O)O [oxalate, oxalic acid] | 0.9 (0.6)^3 | 1.3 (0.2) | 666.9 | most potent inhibitor; also recorded: effective inhibitors | – | – | – | – | – | –
2 | tetraglycine | 1.5 (0.3) | 1.3 (0.4) | 0.1 | – | 8.3 (9.5) | 8.4 (2.7) | 5313.1 | – | – | –
3 | diglycine | 1.0 (0.2) | 1.0 (0.0) | 10.0 | – | 7.4 (1.0) | 4.0 (0.9) | 0.7 (0.1) | – | – | –
4 | NCCCCCC(=O)O [6-aminocaproate, 6-aminocaproic acid] | 1.4 (0.2) | 2.3 (0.6) | 7.9 (3.4) | – | – | – | 3.2 (0.3) | – | – | –
5 | O=C(O)CCCCCCC(=O)O [suberate, suberic acid] | 1.6 (0.3) | 2.0 (0.7) | 95.4 (34.6) | – | – | – | 15.5 (1.4) | – | – | –
6 | O=C(O)CCCC(=O)O [glutarate, glutaric acid] | 1.0 (0.2) | 1.1 (0.2) | 49.7 (28.9) | – | – | – | 1.8 (0.4) | – | – | –
7 | NCCCCCCN [1,6-diaminohexane] | 1.5 (0.3) | 1.3 (0.4) | 18.0 (4.9) | – | – | – | 0.8 (0.0) | – | – | –
8 | Lys-Lys | 1.1 (0.1) | 1.0 (0.1) | 11.2 | – | 13.5 (1.2) | 1.4 (0.2) | 2.7 | – | – | –
9 | NCCCCCCC(=O)O [7-aminoheptanoate, 7-aminoheptanoic acid] | 2.4 (1.0) | 3.9 (2.1) | 4.7 (0.7) | – | – | – | 4.9 (0.5) | weak inhibitions | Potent inhibitors | –
10 | NCCCCN [1,4-diaminobutane] | 1.4 (0.4) | 1.0 (0.2) | 34.5 (13.0) | – | – | – | 0.8 (0.1) | – | – | –
11 | NCCCCCN [1,5-diaminopentane] | 1.5 (0.6) | 0.9 (0.0) | 28.8 (13.3) | – | – | – | 0.9 (0.0) | – | – | –
12 | O=C(O)CCC(=O)O [succinate, succinic acid] | 1.0 (0.3) | 1.1 (0.3) | 33.7 (11.9) | – | – | – | 2.7 (0.7) | – | – | –
13 | NCCCN [1,3-diaminopropane] | 1.3 (0.3) | 0.9 (0.3) | 31.5 (12.0) | – | – | – | 0.7 (0.1) | – | – | –
14 | NCCCCC(=O)O [5-aminovalerate, 5-aminovaleric acid] | 1.2 (0.1) | 2.1 (0.8) | 8.4 (2.6) | – | – | – | 2.7 (0.9) | – | – | –
15 | NCC(=O)O [glycine] | 1.0 (0.3) | 1.4 (0.3) | 1.5 (0.1) | Potent inhibition; also recorded: effective inhibitors | – | – | 54.3 (4.5) | – | – | –
16 | NCCCCCCCN [1,7-diaminoheptane] | 2.7 (1.0) | 1.8 (0.7) | 11.0 (2.1) | – | – | – | 0.6 (0.1) | weak inhibitions | – | –
17 | O=C(O)CCCCC(=O)O [adipate, adipic acid] | 1.2 (0.7) | 1.2 (0.3) | 113.0 | – | – | – | 4.9 (0.9) | – | – | –
18 | O=C(O)CCCCCC(=O)O [pimelate, pimelic acid] | 1.4 (0.6) | 1.3 (0.3) | 78.9 (68.2) | – | – | – | 9.0 (1.3) | – | – | –
19 | NCCN [ethylenediamine] | 0.9 (0.3) | 0.7 (0.4) | 44.5 (13.9) | effective inhibitors | – | – | 202.6 (69.7) | – | – | –
20 | NCC(=O)NCC(=O)NCC(=O)O [triglycine] (H-Gly-Gly-Gly-OH) | 1.4 (0.1) | 0.9 (0.1) | 5.7 (4.0) | – | 0.2 (0.1) | 5.0 (1.4) | 187.6 (46.1) | – | – | –
21 | O=C([O-])CC(=O)[O-].[Na+].[Na+] [malonate, sodium malonate] | 1.2 (0.5) | 1.8 (0.1) | 1714.1 | – | – | – | 18.9 (6.6) | – | – | –
22 | NCCCC(=O)O [4-aminobuytrate, 4-aminobutyric acid] | 1.2 (0.3) | 2.0 (0.8) | 9.5 (1.9) | – | – | – | 2.0 (0.1) | – | – | –
23 | Glu-Glu | 1.0 (0.1) | 1.0 (0.1) | 2.1 | – | 9.8 (0.8) | 1.4 (0.2) | 5.3 (1.2) | – | – | –
24 | pentaglycine | 1.0 (0.2) | 3.1 (1.2) | 0.5 (0.0) | – | 979.0 (7.5) | 5.8 (3.1) | Infinite^4 | – | Potent inhibitors | –
25 | NCCC(=O)O [beta-alanine] | 1.1 (0.1) | 2.1 (0.4) | 24.2 (4.4) | – | – | – | 2.2 (0.3) | – | – | effective inhibitors
